molecular target: hMAT2A (Homo sapiens (Human), UniProt P31153); test: Malachite Green Assay (MAT2A enzyme inhibition); assay type: biochemical; conditions: hMAT2A 50 nM, substrates 500 uM each, 1 hour
Protocol: The ability of the compound of present disclosure to inhibit MAT2A enzyme was determined using the Malachite Green or Phosphate Sensor Fluorescence Assay described below.
L-methionine Substrate: Alfa Aesar catalog #J61904
ATP Substrate: Alfa Aesar cat #J60336
Malachite Green Detection Reagent: Millipore Sigma catalog #MAK307-1KT
Assay buffer: 50 mM Tris, pH 7.5/50 mM KCl/10 mM MgCl2/0.01% Brij-35/1 mM DTT/0.1% BGG
The plate was centrifuged at 1000 rpm for 1 minute and then incubated at room temperature for 1 hour. 5 μL of malachite green detection reagent was added to all the test wells and the plate was centrifuged at 1000 rpm for 1 minute and then incubated at room temperature for 30 minutes. The plate was read for absorbance at 620 nm on a plate reader (e.g., Infinite M1000).

hMAT2A, sequence (P31153 whole entry): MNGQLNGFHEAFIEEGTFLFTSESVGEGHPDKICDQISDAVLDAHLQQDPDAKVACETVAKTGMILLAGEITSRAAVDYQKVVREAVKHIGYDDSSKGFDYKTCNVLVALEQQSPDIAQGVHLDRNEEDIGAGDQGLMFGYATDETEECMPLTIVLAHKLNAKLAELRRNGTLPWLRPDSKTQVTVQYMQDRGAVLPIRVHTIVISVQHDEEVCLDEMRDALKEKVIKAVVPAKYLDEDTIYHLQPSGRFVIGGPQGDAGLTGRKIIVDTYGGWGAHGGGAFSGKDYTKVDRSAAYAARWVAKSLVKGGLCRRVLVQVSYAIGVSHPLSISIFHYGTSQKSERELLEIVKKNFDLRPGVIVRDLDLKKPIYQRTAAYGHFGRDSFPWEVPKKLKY

IC50 | SMILES
< 200 nM | CNc1nc(=O)n(-c2cccc(C)c2)c2cc(Cl)ccc12 [Example 55]
< 200 nM | CNc1nc(=O)n(-c2cccc(Cl)c2)c2cc(Cl)ccc12 [Example 56, 7-Chloro-1-(3-chlorophenyl)-4-(methylamino)hydroquinazolin-2-one]
< 200 nM | CNc1nc(=O)n(-c2ccccc2F)c2cc(Cl)ccc12 [Example 57, 7-chloro-1-(2-fluorophenyl)-4-(methylamino)quinazolin-2(1H)-one]
< 200 nM | Nc1nc(=O)n(-c2ccccc2)c2cc(Cl)ccc12 [Example 59, 4-amino-7-chloro-1-phenylquinazolin-2(1H)-one]
< 200 nM | CN(C)c1nc(=O)n(-c2cccc(Br)c2)c2cc(Cl)ccc12 [Example 60, 1-(3-bromophenyl)-7-chloro-4-(dimethylamino)quinazolin-2(1H)-one]
< 200 nM | CNc1nc(=O)n(-c2cccc(F)c2)c2cc(Cl)ccc12 [Example 61, 7-chloro-1-(3-fluorophenyl)-4-(methylamino)quinazolin-2(1H)-one]
200 to 500 nM | COc1nc(=O)n(-c2ccccc2)c2cc(Cl)ccc12 [Example 62, 7-chloro-4-methoxy-1-phenyl-quinazolin-2(1H)-one]
1000 to 10000 nM | CN(C)CCN(C)c1nc(=O)n(-c2ccccc2)c2cc(Cl)ccc12 [Example 63, 7-chloro-4-((2-(dimethylamino)ethyl)-(methyl)-amino)-1-phenylquinazolin-2(1H)-one]
1000 to 10000 nM | CN(C)CCNc1nc(=O)n(-c2ccccc2)c2cc(Cl)ccc12 [Example 64, 7-chloro-4-((2-(dimethylamino)ethyl)-amino)-1-phenylquinazolin-2(1H)-one]
< 200 nM | O=c1nc(N2CCCCC2)c2ccc(Cl)cc2n1-c1ccccc1 [Example 66, 7-chloro-1-phenyl-4-(piperidin-1-yl)-quinazolin-2(1H)-one]
< 200 nM | O=c1nc(N2CCCC2)c2ccc(Cl)cc2n1-c1ccccc1 [Example 67, 7-chloro-1-phenyl-4-(pyrrolidin-1-yl)-quinazolin-2(1H)-one]
< 200 nM | CNc1nc(=O)n(-c2ccccc2)c2cc(Cl)cc(OC)c12 [Example 70, 7-chloro-5-methoxy-4-(methylamino)-1-phenylquinazolin-2(1H)-one]
< 200 nM | CNc1nc(=O)n(-c2ccccc2)c2cc(Cl)c(OC)cc12 [Example 73, 7-chloro-6-methoxy-4-(methylamino)-1-phenylquinazolin-2(1H)-one]
< 200 nM | O=c1nc(N2CC(O)C2)c2ccc(Cl)cc2n1-c1ccccc1 [Example 74, 7-chloro-4-(3-hydroxyazetidin-1-yl)-1-phenylquinazolin-2(1H)-one]
< 200 nM | CN(C)c1nc(=O)n(-c2cccc(CCOc3ccccc3)c2)c2cc(Cl)ccc12 [Example 75, 7-chloro-4-(dimethylamino)-1-(3-(2-phenoxyethyl)phenyl)quinazolin-2(1H)-one]
< 200 nM | COc1cccc(-n2c(=O)nc(N(C)C)c3ccc(Cl)cc32)c1 [Example 76]
< 200 nM | CN(C)c1nc(=O)n(-c2cccc(CO)c2)c2cc(Cl)ccc12 [Example 77]
< 200 nM | CN(C)c1nc(=O)n(-c2cccc(C#N)c2)c2cc(Cl)ccc12 [Example 81, 3-[4-(dimethylamino)-7-chloro-2-oxohydroquinazolinyl]benzenecarbo-nitrile]
< 200 nM | N#CC1CN(c2nc(=O)n(-c3cccc(F)c3)c3cc(Cl)ccc23)C1 [Example 82, 1-(7-chloro-1-(3-fluorophenyl)-2-oxo-1,2-dihydroquinazolin-4-yl)azetidine-3-carbonitrile]
